Source: ChEMBL document CHEMBL1909046, “DrugMatrix in vitro pharmacology data”

Key:
[1] = target: T1, Cholecystokinin receptor type A (Homo sapiens, UniProt P32238); assay type: cell membranes, Membrane; settings: 1321-n1; also: in other assays of this panel Not Active means under 50% inhibition at 10 µM
T1 sequence (P32238 whole entry): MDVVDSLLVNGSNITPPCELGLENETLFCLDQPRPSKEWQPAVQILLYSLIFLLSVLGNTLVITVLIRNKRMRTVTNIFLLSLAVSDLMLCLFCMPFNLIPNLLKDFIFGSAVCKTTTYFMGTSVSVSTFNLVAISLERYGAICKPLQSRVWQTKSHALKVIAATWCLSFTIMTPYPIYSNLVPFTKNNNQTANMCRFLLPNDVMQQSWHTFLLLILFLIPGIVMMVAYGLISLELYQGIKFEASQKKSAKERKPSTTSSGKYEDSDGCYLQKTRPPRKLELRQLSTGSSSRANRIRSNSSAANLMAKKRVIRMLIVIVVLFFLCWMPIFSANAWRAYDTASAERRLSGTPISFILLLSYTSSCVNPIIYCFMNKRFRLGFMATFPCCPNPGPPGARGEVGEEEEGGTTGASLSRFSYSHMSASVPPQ

[2] = DRUGMATRIX: Glutamate, NMDA, Agonism radioligand binding (ligand: [3H] CGP-39653); assay type: cell membranes, Rattus norvegicus, Wistar, Cerebral cortex, Membrane; settings: Not Active = under 50% inhibition at 10 µM
[3] = target: Protein phosphatase 3 catalytic subunit alpha (Homo sapiens, UniProt Q08209); design: species or system Escherichia coli;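 also: inhibition of calcineurin (PP2B) enzyme activity, measured with DiFMUP as the substrate; in other assays of this panel Not Active means under 50% inhibition at 10 µM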
[4] = DRUGMATRIX: Interleukin IL-1 radioligand binding (ligand: [125I] interleukin 1beta); assay type: cell membranes, Membrane; settings: nih3t3; Not Active = under 50% inhibition at 10 µM
[5] = target: Beta-1 adrenergic receptor (Homo sapiens, UniProt P08588); experiment: DRUGMATRIX: Adrenergic beta1 radioligand binding (ligand: [125I] Cyanopindolol); assay type: cell membranes, CHO-K1, Membrane; settings: cho-k1; Not Active = under 50% inhibition at 10 µM
Acetylcholinesterase = Acetylcholinesterase (Homo sapiens, UniProt P22303); experiment: DRUGMATRIX: Acetylcholinesterase enzyme inhibition (substrate: acetylthiocholine); assay type: cell-based, HEK293; settings: hek293; Not Active = under 50% inhibition at 10 µM
[6] = DRUGMATRIX: GABAA, Muscimol, Central radioligand binding (ligand: [3H] Muscimol); assay type: cell membranes, Rattus norvegicus, Wistar, Brain, Membrane; settings: Not Active = under 50% inhibition at 10 µM
[7] = target: Aldo-keto reductase family 1 member B1 (Rattus norvegicus, UniProt P07943); experiment: biochemical; assay type: tissue-based, Lens of camera-type eye;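 also: inhibition of aldose reductase enzyme activity, measured with DL-glyceraldehyde as the substrate; in other assays of this panel Not Active means under 50% inhibition at 10 µM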

Acetylcholinesterase, sequence (P22303 whole entry): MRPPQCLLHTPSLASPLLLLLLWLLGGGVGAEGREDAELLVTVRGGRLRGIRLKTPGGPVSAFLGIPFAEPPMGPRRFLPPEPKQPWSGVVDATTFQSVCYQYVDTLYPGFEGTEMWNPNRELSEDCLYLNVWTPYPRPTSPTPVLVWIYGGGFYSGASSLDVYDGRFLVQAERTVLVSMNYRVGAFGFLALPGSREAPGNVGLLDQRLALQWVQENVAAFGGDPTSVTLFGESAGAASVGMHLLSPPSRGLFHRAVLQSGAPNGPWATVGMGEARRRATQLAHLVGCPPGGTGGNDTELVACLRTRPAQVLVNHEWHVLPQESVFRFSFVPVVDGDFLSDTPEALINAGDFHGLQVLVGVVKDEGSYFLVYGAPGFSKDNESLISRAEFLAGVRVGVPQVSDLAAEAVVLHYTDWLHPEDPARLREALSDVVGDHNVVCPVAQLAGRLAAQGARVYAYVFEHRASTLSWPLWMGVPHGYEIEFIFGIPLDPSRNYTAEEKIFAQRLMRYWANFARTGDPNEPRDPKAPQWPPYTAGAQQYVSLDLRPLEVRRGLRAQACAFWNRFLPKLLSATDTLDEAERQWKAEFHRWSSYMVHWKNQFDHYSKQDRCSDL
Beta-1 adrenergic receptor, sequence (P08588 whole entry): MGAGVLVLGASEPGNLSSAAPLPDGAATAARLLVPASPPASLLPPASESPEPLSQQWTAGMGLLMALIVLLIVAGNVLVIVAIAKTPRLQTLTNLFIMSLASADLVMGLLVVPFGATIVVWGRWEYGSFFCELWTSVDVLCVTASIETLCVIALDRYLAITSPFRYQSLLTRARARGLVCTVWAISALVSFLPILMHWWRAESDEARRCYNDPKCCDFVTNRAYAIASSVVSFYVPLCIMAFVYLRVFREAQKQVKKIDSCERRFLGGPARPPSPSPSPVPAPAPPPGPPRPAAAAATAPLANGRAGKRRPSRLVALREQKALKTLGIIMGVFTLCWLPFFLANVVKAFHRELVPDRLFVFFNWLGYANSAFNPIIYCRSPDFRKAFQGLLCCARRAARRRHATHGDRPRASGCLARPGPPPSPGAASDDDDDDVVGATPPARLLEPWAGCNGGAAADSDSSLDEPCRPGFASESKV

O=C(O)c1cc(-c2ccc(F)cc2F)ccc1O [DIFLUNISAL]
Not Active: IC50 [1] | IC50 [2] | Ki [2] | IC50 [3] | IC50 [4] | Ki [4] | IC50 [5] | IC50 (Acetylcholinesterase) | IC50 [6] | Ki [6] | IC50 [7]

C[S+](C)[O-] [DIMETHYL SULFOXIDE]
Not Active: IC50 [1] | IC50 [2] | Ki [2] | IC50 [3] | IC50 [4] | Ki [4] | IC50 [5] | IC50 (Acetylcholinesterase) | IC50 [6] | Ki [6] | IC50 [7]

CC1=NN(c2ccccc2)C(=O)C1 [EDARAVONE]
Not Active: IC50 [1] | IC50 [2] | Ki [2] | IC50 [3] | IC50 [4] | Ki [4] | IC50 [5] | IC50 (Acetylcholinesterase) | IC50 [6] | Ki [6] | IC50 [7]

CC(C)C[C@H]1C(=O)N2CCC[C@H]2[C@]2(O)O[C@](NC(=O)[C@@H]3C=C4c5cccc6[nH]cc(c56)C[C@H]4N(C)C3)(C(C)C)C(=O)N12 [ERGOCRYPTINE]
Not Active: IC50 [1] | IC50 [2] | Ki [2] | IC50 [3] | IC50 [4] | Ki [4] | IC50 [5] | IC50 (Acetylcholinesterase) | IC50 [6] | Ki [6] | IC50 [7]

C[C@]12CC[C@@H]3c4ccc(O)cc4CC[C@H]3[C@@H]1C[C@@H](O)[C@@H]2O [ESTRIOL]
Not Active: IC50 [1] | IC50 [2] | Ki [2] | IC50 [3] | IC50 [4] | Ki [4] | IC50 [5] | IC50 (Acetylcholinesterase) | IC50 [6] | Ki [6] | IC50 [7]

C#C[C@]1(O)CC[C@H]2[C@@H]3CCC4=CC(=O)CC[C@]4(C)[C@H]3CC[C@@]21C [ETHISTERONE]
Not Active: IC50 [1] | IC50 [2] | Ki [2] | IC50 [3] | IC50 [4] | Ki [4] | IC50 [5] | IC50 (Acetylcholinesterase) | IC50 [6] | Ki [6] | IC50 [7]

CC(O)(P(=O)(O)O)P(=O)(O)O [ETIDRONIC ACID]
Not Active: IC50 [1] | IC50 [2] | Ki [2] | IC50 [3] | IC50 [4] | Ki [4] | IC50 [5] | IC50 (Acetylcholinesterase) | IC50 [6] | Ki [6] | IC50 [7]

CC(C)(C(=O)O)c1ccc(C(O)CCCN2CCC(C(O)(c3ccccc3)c3ccccc3)CC2)cc1 (stereo not drawn) [FEXOFENADINE]
Not Active: IC50 [1] | IC50 [2] | Ki [2] | IC50 [3] | IC50 [4] | Ki [4] | IC50 [5] | IC50 (Acetylcholinesterase) | IC50 [6] | Ki [6] | IC50 [7]
